In one assay the target is T1, NPFF2 (Homo sapiens, UniProt Q9Y5X5).
T1 construct: expressed in transfected cells; host or cells: NIH3T3
The assay is described as follows: Receptor Selection and Amplification Technology (R-SAT) functional assay, NPFF2. The settings on record: R-SAT, Table 1; for Emax: Efficacy is relative to endogenous ligand, read-out: NPFF2 % Efficacy; for NPFF2 pEC50 / EC50: NA = No activity detectable at the highest dose tested (20 μM); for EC50: read-out: NPFF2 pEC50 (converted). It counts as cell-based. The protocol:
(§1) Briefly, NIH3T3 cells were grown in 96 well tissue culture plates to 70-80% confluence. Cells were transfected for 16-20 h h with plasmid DNAs using Polyfect (Qiagen Inc.) as per manufacturer's protocols. R-SAT's were generally performed with 40 ng/well of receptor and 20 ng/well of β-galactosidase plasmid DNA. All receptor and G-protein constructs used were in the pSI-derived mammalian expression vector (Promega Inc) as described previously. […] For large-scale transfections, cells were transfected for 16-20 h, then trypsinized and frozen in DMSO. Frozen cells were later thawed, plated at ˜20,000 cells per well of a 96 half-area well plate that contained drug. With both methods, cells were then grown in a humidified atmosphere with 5% ambient CO2 for five days. Media was then removed from the plates and marker gene activity was measured by the addition of the β-galactosidase substrate o-nitrophenyl β-D-galactopyranoside (ONPG, in PBS with 0.5% NP-40). The resulting colorimetric reaction was measured in a spectrophotometric plate reader (Titertek Inc.) at 420 nm. All data were analyzed using the computer program XLFit (IDBSm).
(§2) R-SAT assay was conducted as set forth in […]

The target in another assay is NPFF1 (Homo sapiens, UniProt Q9GZQ6). The assay is described as follows: Receptor Selection and Amplification Technology (R-SAT) functional assay, NPFF1. The format is cell-based. Set-up: expressed in transfected cells; host or cells: NIH3T3. The settings on record: R-SAT, Table 1; for Emax: Efficacy is relative to endogenous ligand, read-out: NPFF1 % Efficacy; for EC50: NA = No activity detectable at the highest dose tested (20 μM), read-out: NPFF1 pEC50 (converted). The protocol: as §1, §2
NPFF1, sequence (Q9GZQ6 whole entry, species assumed): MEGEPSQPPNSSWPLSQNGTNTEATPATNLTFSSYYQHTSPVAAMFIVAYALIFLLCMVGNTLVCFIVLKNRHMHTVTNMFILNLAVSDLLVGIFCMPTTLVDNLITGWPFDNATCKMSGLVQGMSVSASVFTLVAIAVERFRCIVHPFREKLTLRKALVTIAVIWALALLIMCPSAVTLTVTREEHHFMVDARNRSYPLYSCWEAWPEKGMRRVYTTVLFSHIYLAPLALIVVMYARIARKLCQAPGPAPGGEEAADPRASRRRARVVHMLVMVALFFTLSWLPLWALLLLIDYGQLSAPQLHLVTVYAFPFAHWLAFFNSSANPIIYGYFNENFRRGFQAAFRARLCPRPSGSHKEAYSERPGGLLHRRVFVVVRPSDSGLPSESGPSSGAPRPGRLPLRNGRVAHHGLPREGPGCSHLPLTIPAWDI

The structures appear in SMILES notation. Counter-ions that a name gives are not always drawn.

T1 sequence (Q9Y5X5 103-522): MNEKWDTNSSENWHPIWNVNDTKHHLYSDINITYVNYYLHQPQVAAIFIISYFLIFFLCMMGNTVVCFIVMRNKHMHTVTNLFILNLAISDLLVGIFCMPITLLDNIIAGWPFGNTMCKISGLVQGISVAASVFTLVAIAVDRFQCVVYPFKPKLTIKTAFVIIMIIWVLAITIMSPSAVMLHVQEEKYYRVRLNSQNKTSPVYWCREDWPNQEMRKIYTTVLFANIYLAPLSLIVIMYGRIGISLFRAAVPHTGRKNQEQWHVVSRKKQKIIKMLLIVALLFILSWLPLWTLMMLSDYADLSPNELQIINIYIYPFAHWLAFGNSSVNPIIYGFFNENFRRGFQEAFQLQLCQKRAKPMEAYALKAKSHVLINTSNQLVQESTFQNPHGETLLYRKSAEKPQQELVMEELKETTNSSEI

Consider `CCCCC/C(=N\NC(=N)N)c1ccc(C)cc1` [Compound 1002], for which, at NPFF2, the Emax was found to be 41% and the “NPFF2 pEC50” value came to 6.2.

Take `CCOc1ccc(C=NNC(=N)N)cc1` [Compound 4005, 1-(4-Ethoxybenzylideneamino)guanidine Hydrochloride]: the Emax amounted to 49% at NPFF2 and 89% on NPFF1. The EC50 at NPFF2 was 5010 nM; on NPFF1, 10000 nM.

Turning to `CCOCCOc1ccc(/C=N/NC(=N)N)cc1Cl` [Compound 2054, 1-[3-Chloro-4-(2-ethoxy-ethoxy)benzylideneamino])guanidine Acetate], on NPFF2, the Emax came out at 96% and the EC50 was 10000 nM. At NPFF1, the Emax is 21%.

`CCCCC/C(=N/NC(=N)N)c1cccc(C)c1` [Compound 1001]: the Emax on NPFF2 was determined as 49%.

As for `NC(N)=NN=Cc1ccc(Cl)c(C(F)(F)F)c1` [Compound 2035, 1-[4-Chloro-3-(trifluoromethyl)benzylideneamino]guanidine Hydrochloride], the Emax at NPFF2 was 114%. Besides, on NPFF1, the Emax came to 45% and the EC50 is 3980 nM.

Regarding `N=C(N)NN=Cc1ccc(Oc2ccccc2)cc1` [Compound 2020, 1-(4-Phenoxybenzylideneamino)guanidine Hydrochloride], the results for the Emax on NPFF2 and at NPFF1 were 31% and 24%, respectively. Also, the EC50 at NPFF2 was 501 nM; at NPFF1, 1260 nM.

As to `N=C(N)NN=Cc1ccc(C(F)(F)F)cc1F` [Compound 2060, 1-[2-Fluoro-4-(trifluoromethyl)benzylideneamino]guanidine Hydrochloride], the Emax at NPFF2 is 48%; on NPFF1, 26%. In addition, the EC50 at NPFF2 and on NPFF1 was 3980 nM each time.

Turning to `CC(=NNC(=N)N)c1ccc2c(c1)CCCC2` [Compound 3024, 1-[1-(5,6,7,8-Tetrahydronaphthalen-2-yl)ethylideneamino]guanidine Hydrochloride], on NPFF2, the Emax is 99% and the EC50 was 398 nM. For the same molecule, at NPFF1, the Emax turned out to be 41% and the EC50 is 1000 nM.

For `N=C(N)NN=Cc1cccc(C(F)(F)F)c1` [Compound 2002, 1-[3-(Trifluoromethyl)benzylideneamino]guanidine Hydrochloride], on NPFF2, the Emax is 39% and the EC50 is 2510 nM.

On to `N=C(N)NN=Cc1cccc(-c2ccccc2C(F)(F)F)c1` [Compound 2058, 1-[3-(2-Trifluoromethylphenyl)benzylideneamino]guanidine Hydrochloride], for which the Emax at NPFF2 was found to be 60%; at NPFF1, 25%. Further, the EC50 at NPFF2 was 501 nM; on NPFF1 it was 1000 nM.

Turning to `CCCCC(=NNC(=N)N)c1ccc(N(C)C)cc1` (mixture of isomers) [Compound 3035, 1-[1-(4-Dimethylaminophenyl)pentylideneamino]guanidine], the Emax on NPFF2 is 69%; on NPFF1, 81%. The EC50 at NPFF2 is 2000 nM; on NPFF1, 3160 nM.

As to `COc1ccc(C=NNC(=N)N)cc1F` [Compound 2009, 1-(3-Fluoro-4-methoxybenzylideneamino)guanidine Hydrochloride], the Emax on NPFF2 came out at 54%; at NPFF1 it was 9%. The EC50 at NPFF2 was 7940 nM.

For `N=C(N)NN=Cc1ccc(F)c(C(F)(F)F)c1` [Compound 2068, 1-[4-Fluoro-3-(trifluoromethyl)benzylideneamino]guanidine Hydrochloride], on NPFF2, the Emax was determined as 61% and the EC50 is 1000 nM. Besides, on NPFF1, the Emax worked out at 13%.

For the molecule `CCc1ccc(C=NNC(=N)N)cc1` [Compound 3025, 1-(4-Ethylbenzylideneamino)guanidine Hydrochloride], the Emax at NPFF2 worked out at 101%; on NPFF1, 28%. For the same molecule, the EC50 at NPFF2 was 2000 nM; at NPFF1, 3160 nM.

For the molecule `COc1ccc(OC)c(C=NNC(=N)N)c1` [Compound 3005, 1-(2,5-Dimethoxybenzylideneamino)guanidine Hydrochloride], on NPFF2, the Emax was 59% and the EC50 is 7940 nM. At NPFF1, the Emax was determined as 3%.

With `CC(=NNC(=N)N)c1cccc(C)c1` [Compound 3017, 1-[1-(3-Methylphenyl)ethylideneamino]guanidine Hydrochloride], on NPFF2, the Emax stood at 80% and the EC50 is 6310 nM. The Emax at NPFF1 was determined as 17%.

Consider `CN(CCC#N)c1ccc(C=NNC(=N)N)cc1` [Compound 3040, 1-{4-[Methyl-(2-cyanoethyl)amino]benzylideneamino}guanidine Hydrochloride], for which, on NPFF2, the Emax amounted to 70% and the EC50 is 2000 nM. For the same molecule, at NPFF1, the Emax was found to be 48% and the EC50 was 1580 nM.

With `Cc1ccc(C=NNC(=N)N)c(C)c1` [Compound 2077, 1-[2,4-Dimethylbenzylideneamino]guanidine Hydrochloride], on NPFF2, the Emax came to 61% and the EC50 was 3160 nM. In addition, at NPFF1, the Emax was found to be 21% and the EC50 is 398 nM.

In the case of `N=C(N)NN=Cc1cc2c(cc1Br)OCO2` [Compound 3015, 1-[(6-Bromobenzo[1,3]dioxol-5-yl)methylideneamino]guanidine Hydrochloride], the Emax was determined as 70% on NPFF2 and 26% on NPFF1. In addition, the EC50 was 1260 nM on NPFF2 and 1000 nM at NPFF1.

Turning to `N=C(N)NN=Cc1cc(F)ccc1[N+](=O)[O-]` [Compound 2004, 1-(5-Fluoro-2-nitrobenzylideneamino)guanidine Hydrochloride], at NPFF2, the Emax is 38% and the EC50 was 10000 nM.

`N=C(N)NN=Cc1ccc(C(F)(F)F)c(F)c1` [Compound 2063, 1-[3-Fluoro-4-(trifluoromethyl)benzylideneamino]guanidine Hydrochloride]: the Emax at NPFF2 was 78%; at NPFF1, 36%. The EC50 was 2510 nM on NPFF2 and 3160 nM on NPFF1.

On to `CN(C)c1ccc(/C=N/NC(=N)N)cc1[N+](=O)[O-]` [Compound 1012], for which, at NPFF2, the Emax worked out at 51% and the “NPFF2 pEC50” value worked out at 5.2.

Take `COc1ccc(OC)c(C(C)=NNC(=N)N)c1` (mixture of isomers) [Compound 3029, 1-[1-(2,5-Dimethoxyphenyl)ethylideneamino]guanidine Hydrochloride]: at NPFF2, the Emax turned out to be 32% and the EC50 was 5010 nM. Further, at NPFF1, the Emax is -1%.

For `N=C(N)NN=Cc1ccc2ccccc2c1` [Compound 2075, 1-[Naphthalen-2-yl-methylideneamino]guanidine Hydrochloride], on NPFF2, the Emax is 65% and the EC50 was 2510 nM. At NPFF1, the Emax turned out to be 24% and the EC50 is 1260 nM.

As to `COc1cc(C=NNC(=N)N)cc(OC)c1` [Compound 2007, 1-(3,5-Dimethoxybenzylideneamino)guanidine Hydrochloride], at NPFF2, the Emax stood at 29% and the EC50 is 3160 nM. For the same molecule, on NPFF1, the Emax was 5%.

Consider `N=C(N)NN=Cc1c2ccccc2cc2ccccc12` [Compound 2006, 1-[(Anthracen-9-yl)methylideneamino]guanidine Hydrochloride], for which, at NPFF2, the Emax was 51% and the EC50 is 794 nM.

For `CC(=NNC(=N)N)c1cccc(Br)c1` [Compound 2003, 1-[1-(3-Bromophenyl)ethylideneamino]guanidine Hydrochloride], on NPFF2, the Emax is 49% and the EC50 was 1580 nM.

Turning to `N#CCCCCOc1ccc(C=NNC(=N)N)cc1Cl` [Compound 2044, 1-[3-Chloro-4-(4-cyanobutoxy)benzylideneamino]guanidine Hydrochloride], at NPFF2, the Emax amounted to 45% and the EC50 was 3980 nM.

As to `COc1ccc(/C=N/NC(=N)N)cc1I` [Compound 1005], at NPFF2, the Emax came out at 70% and the “NPFF2 pEC50” value stood at 5.5.

With `C/C(=N\NC(=N)N)c1ccccc1` [Compound 1010], at NPFF2, the Emax was 51% and the “NPFF2 pEC50” value is given as 5.2.

As for `N=C(N)N/N=C/c1ccc(Br)cc1` [Compound 1007], the Emax on NPFF2 stood at 102%.

As for `C=CCOc1ccc(C=NNC(=N)N)cc1Cl` [Compound 2042, 1-(4-Allyloxy-3-chlorobenzylideneamino)guanidine Hydrochloride], at NPFF2, the Emax was determined as 60% and the EC50 is 794 nM.

As for `COc1ccc(/C=N/NC(=N)N)cc1` [Compound 1014], at NPFF2, the Emax was found to be 97% and the “NPFF2 pEC50” value was determined as 5.0.

With `CCCC/C(=N\NC(=N)N)c1ccc(O)cc1` [Compound 1004], on NPFF2, the Emax was found to be 106%.

On to `C/C(=N\NC(=N)N)c1cc(Br)ccc1Br` [Compound 1006], for which the Emax at NPFF2 is 53%.

Take `COc1ccc(C=NNC(=N)N)cc1Cl` [Compound 2043, 1-(3-Chloro-4-methoxybenzylideneamino)guanidine Hydrochloride]: at NPFF2, the Emax turned out to be 47% and the EC50 was 2000 nM.

Values taken from patent publication US20050136444A1 (priority 2003, published 2005).
